Patent US8623924B2, “Compositions and methods for modulating metabolic pathways” (Nusirt Sciences, Inc., priority 2011, dated 2014)
“Also recorded” adds a separate entry of the source.

Assays:
[1] = test system: adipocytes (3T3-L1) and myotubes (C2C12); assay: Fatty acid oxidation screening and dose-response, cell type both or not stated; format: cell-based; conditions: for concentrations that exert no effect (dose-response curves; sub-therapeutic dose): highest dose that exerted no effect on fatty acid oxidation; for independent activity in stimulating fatty acid oxidation (dose-response): compound alone; for synergy with HMB or leucine in stimulating fatty acid oxidation: compound at its no-effect concentration with HMB 5 μM or leucine 0.5 mM
[2] = in vivo; cited from earlier work
[3] = test system: c2c12 myotubes; assay: Glucose utilization (extracellular acidification) in C2C12 myotubes; format: cell-based; conditions: HMB 5 μM, leucine 0.5 mM, resveratrol 200 nM, other components at their no-effect concentration
Description: All compounds were tested for potential to independently or synergistically modulate sirtuin signaling either by direct stimulation or indirect via upstream signaling via AMPK. A key outcome of Sirt1 signaling is stimulation of PGC1-α and subsequent stimulation of mitochondrial biogenesis and fatty acid oxidation. Accordingly, fatty acid oxidation, measured as palmitate-induced oxygen consumption as described below, was utilized as a sensitive first level of screening for aerobic mitochondrial metabolism. A dose-response curve for fatty acid oxidation was established for each compound studied, and a “sub-therapeutic dose” was defined as the highest dose that exerted no effect in this system. […] Following assessment of fatty acid oxidation, Sirt1 activity, AMPK activity, mitochondrial biogenesis and glucose utilization (measured as glucose-induced extracellular acidification in the absence of fatty acids in the media) were assessed for lead combinations and appropriate controls. Glucose Utilization: In the absence of a fatty acid source and oxidative metabolism, glycolysis and subsequent lactate production results in extracellular acidification, which was also measured using a Seahorse Bioscience XF24 analyzer. […] Data for each sample were normalized to the pre-glucose injection baseline for that sample and expressed as % change from that baseline. […]

[4] = biological target: T1, SIRT1 (Homo sapiens, UniProt Q96EB6); assay: SIRT1 activity, cell-free fluorimetric deacetylation assay; format: biochemical; conditions: cell-free system
T1 construct: purchased ENZO Life Sciences International, Inc. BML-AK555
T1 sequence (Q96EB6 1-747): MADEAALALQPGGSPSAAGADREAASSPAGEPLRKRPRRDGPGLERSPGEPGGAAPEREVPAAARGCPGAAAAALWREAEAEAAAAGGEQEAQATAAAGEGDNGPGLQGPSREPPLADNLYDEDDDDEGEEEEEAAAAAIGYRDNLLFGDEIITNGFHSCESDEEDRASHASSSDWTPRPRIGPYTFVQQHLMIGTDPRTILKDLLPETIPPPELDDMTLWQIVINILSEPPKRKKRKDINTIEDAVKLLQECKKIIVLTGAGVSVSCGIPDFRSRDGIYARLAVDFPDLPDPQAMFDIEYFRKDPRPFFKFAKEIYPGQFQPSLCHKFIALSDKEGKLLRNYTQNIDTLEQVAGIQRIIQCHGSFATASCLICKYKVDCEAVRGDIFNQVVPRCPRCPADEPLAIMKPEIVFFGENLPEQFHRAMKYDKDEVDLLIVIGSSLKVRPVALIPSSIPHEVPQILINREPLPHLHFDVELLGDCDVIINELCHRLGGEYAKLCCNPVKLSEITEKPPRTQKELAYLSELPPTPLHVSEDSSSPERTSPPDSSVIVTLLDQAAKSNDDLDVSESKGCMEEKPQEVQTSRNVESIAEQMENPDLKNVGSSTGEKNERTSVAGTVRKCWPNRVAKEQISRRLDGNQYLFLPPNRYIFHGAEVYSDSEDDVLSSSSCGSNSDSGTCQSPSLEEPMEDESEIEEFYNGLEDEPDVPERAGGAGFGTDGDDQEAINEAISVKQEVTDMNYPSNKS
Description: SIRT1 activity was measured by using the SIRT1 Fluorimetric Drug Discovery Kit (BML-AK555, ENZO Life Sciences International, Inc. PA, USA). In this assay, SIRT1 activity is assessed by the degree of deacetylation of a standardized substrate containing an acetylated lysine side chain. The substrate utilized is a peptide containing amino acids 379-382 of human p53 (Arg-His-Lys-Lys[Ac]), an established target of SIRT1 activity; SIRT1 activity is directly proportional to the degree of deacetylation of Lys-382. Samples were incubated with peptide substrate (25 μM), and NAD^+ (500 μM) in a phosphate-buffered saline solution at 37° C. on a horizontal shaker for 45 minutes. The reaction was stopped with the addition of 2 mM nicotinamide and a developing solution that binds to the deacetylated lysine to form a fluorophore. Following 10 minutes incubation at 37° C., fluorescence was read in a plate-reading fluorometer at an excitation wavelength of 360 nm and an emission wavelength of 450 nm. […] A standard curve was constructed using deacetylated substrate (0-10 μM).

[5] = Insulin tolerance test in db/db mice; format: in vivo
[6] = db/db mice
[7] = Plasma insulin, glucose and HOMAIR in db/db mice; format: in vivo
[8] = test system: PGC-1α, NRF-1 and UCP3 genes; assay: Expression of mitochondrial regulatory and component genes; format: cell-based
[9] = test system: Adipocytes (3T3-L1); assay: Fatty acid oxidation (3H-palmitate) in 3T3-L1 adipocytes; format: cell-based; conditions: high (25 mM) glucose, 4 hours; leucine 0.5 mM, HMB 5 uM, resveratrol 200 nM; vs. control
Description: High glucose medium reduced fatty acid oxidation by 46% (p<0.05).
Fatty acid oxidation was measured using ^3H-labeled palmitate oxidation, with the ^3H label trapped as water as a result of the fat oxidation. The ^3H was then measured via scintillation counter.

[10] = biological target: T2, Sirt3 (Mus musculus, UniProt Q8R104); assay: Sirt3 activity in mitochondrial protein of treated 3T3-L1 adipocytes; format: cell-based; conditions: 4 hours, leucine 0.5 mM, HMB 5 uM, resveratrol 200 nM
T2 construct: endogenous in cells; host or cells: 3T3-L1 adipocytes (mitochondrial protein)
T2 sequence (Q8R104 1-334): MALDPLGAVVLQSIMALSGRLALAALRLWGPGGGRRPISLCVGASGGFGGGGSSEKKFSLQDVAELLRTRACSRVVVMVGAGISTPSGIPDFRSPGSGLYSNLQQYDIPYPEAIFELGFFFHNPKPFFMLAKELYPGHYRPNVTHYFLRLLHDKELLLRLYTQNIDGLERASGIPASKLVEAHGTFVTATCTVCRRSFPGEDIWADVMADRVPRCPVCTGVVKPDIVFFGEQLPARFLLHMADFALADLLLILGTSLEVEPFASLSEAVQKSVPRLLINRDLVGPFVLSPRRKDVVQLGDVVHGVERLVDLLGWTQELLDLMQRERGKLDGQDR

[11] = test system: c2c12 myotubes; assay: Fatty acid oxidation (FAO) in c2c12 myotubes, Example 1; format: cell-based; conditions: preserved in presence and absence of 20 nM rapamycin
Description: We have shown that catabolic systems are also stimulated to fuel this process, resulting in increased mitochondrial biogenesis and fatty acid oxidation (FAO). To address the mechanism of this effect, we first determined its mTOR-dependence by assessing leucine stimulation of FAO in the presence and absence of 20 nM rapamycin; although rapamycin inhibited FAO in c2c12 myotubes, the degree of leucine stimulation was preserved (˜50%, p<0.03; FIG. 1).
(§1) We next investigated the role of intact leucine (0-0.5 mM) vs. its metabolites, α-ketoisocaproic acid (KIC) (0-0.5 mM) and HMB (0-50 μM). […] Both leucine and HMB increased myotube mitochondrial biogenesis (assessed fluorometrically via NAO binding) by ˜50%, (p<0.005, FIG. 3).

[12] = test system: myotube mitochondrial biogenesis; assay: Myotube mitochondrial biogenesis (NAO binding), Example 1; format: cell-based; conditions: assessed fluorometrically via NAO binding
Description: as §1

[13] = high dose metformin 300 mg/kg bw

O=C(O)/C=C/c1ccc(O)c(O)c1 [Caffeic acid]
concentrations that exert no effect (dose-response curves; sub-therapeutic dose) [1]: ≤ 1000 nM

Cn1c(=O)c2c(ncn2C)n(C)c1=O [Caffeine]
plasma concentration observed following caffeine consumption [2]: 1000 to 10000 nM

O=C(O[C@@H]1Cc2c(O)cc(O)cc2O[C@@H]1c1cc(O)c(O)c(O)c1)c1cc(O)c(O)c(O)c1 [EGCG, epigallocatechin gallate]
increase in glucose utilization in myotubes (extracellular acidification response to glucose) [3]: no independent effect
independent activity in stimulating fatty acid oxidation (dose-response) [1]: minimally active
synergy with HMB or leucine in stimulating fatty acid oxidation [1]: do not detect synergistic effects

O=c1oc2c(O)c(O)cc3c(=O)oc4c(O)c(O)cc1c4c23 [Ellagic acid]
independent activity in stimulating fatty acid oxidation (dose-response) [1]: little activity, even at high concentrations (50 μM)

CC(C)CC(=O)C(=O)O [KIC, α-ketoisocaproic acid]
SIRT1 activity [4]: significantly increased SIRT1 activity

OC[C@@H](O)[C@@H](O[C@H]1O[C@H](CO)[C@@H](O)[C@H](O)[C@H]1O)[C@H](O)[C@@H](O)CO [Maltitol, reference compound]
synergy with HMB or leucine in stimulating fatty acid oxidation [1]: no synergy was noted
concentrations that exert no effect (dose-response curves; sub-therapeutic dose) [1]: ≤ 100 nM

CN(C)C(=N)N=C(N)N [Metformin]
decrease in blood glucose over the 30 minute linear portion of the insulin response curve ([5]; insulin 0.75 U/kg, standard metformin dose, or low / very low metformin blends): ~60 mg/dL
changes in blood glucose in response to the insulin challenge ([5]; low-dose or very low-dose of metformin alone): minimal changes
effects on body composition [6, 13]: no significant effects
effect on visceral fat mass ([6]; metformin at any dosage in the absence of HMB): not affected
reduction of plasma insulin ([7]; 2 weeks, high dose metformin 300 mg/kg bw (1.5 g/kg diet)): 27%
plasma insulin ([7]; 2 weeks, high dose metformin 300 mg/kg bw, control 62): 45 uU/mL
effect on plasma glucose [7, 13]: no significant effect
independent effects on any variable studied ([7]; low dose of metformin (150 mg/kg) and very low dose (50 mg/kg)): no significant independent effects

O[C@H]1[C@H](O)[C@@H](O)[C@H](O)[C@@H](O)[C@H]1O [Myo-inositol, reference compound]
synergy with HMB or leucine in stimulating fatty acid oxidation [1]: no synergy

OC[C@@H](O)[C@@H](O)[C@H](O)[C@@H](O)CO [Sorbitol, reference compound]
synergy with HMB or leucine in stimulating fatty acid oxidation [1]: no synergy

Cn1c(=O)c2[nH]cnc2n(C)c1=O [Theophylline, reference compound]
concentrations that exert no effect (dose-response curves; sub-therapeutic dose) [1]: below 1 μM

CC(C)C[C@H](N)C(=O)O [leucine]
expression of mitochondrial regulatory (PGC-1α and NRF-1) and component (UCP3) genes [8]: stimulated expression
increase in fatty acid oxidation, high glucose [9]: 27%
increase in Sirt3 activity [10]: no significant independent effect; also recorded: no independent effects
SIRT1 activity [4]: significantly increased SIRT1 activity
leucine stimulation of FAO [11]: ~50%
increase in myotube mitochondrial biogenesis [12]: ~50%

CC(C)[C@H](N)C(=O)O [valine, reference compound]
SIRT1 activity [4]: no significant effect

Fucoxanthin
concentrations that exert no effect (dose-response curves; sub-therapeutic dose) [1]: ≤ 100 nM
